Data: patent publication US20220387469A1, “METHOD OF UTILIZING ULTRAFINE BUBBLES” (Shiseido Company, Ltd., priority 2019, published 2022)

Test: Permeation of adenosine into stratum corneum of forearm skin (tape peel, LC-MS quantification)
Type: in vivo, human
Conditions: forearm of a test subject, Formulation 1 that contains ultrafine bubbles (aerosol spray, actuator D391, nitrogen 0.9 MPa) applied first, then Formulation 2 (0.2% adenosine) applied for 10 minutes, 1 cm by 1 cm stratum corneum
Description: In order to provide Formulation 1 that contains ultrafine bubbles onto the skin, the aerosol container 10 was filled with Formulation 1, and the interior pressure was set to 0.9 MPa with nitrogen gas. The actuator “D391” having a flow rate adjusting mechanism produced by K. K. Mitani Valves was applied as the spray actuator 11.
That is, a liquid which was sprayed from the aerosol container 10 and Formulation 1 as an undiluted liquid were applied to two different locations on a forearm of a test subject. Thereafter, Formulation 2 that contains adenosine was applied onto each of the two locations for 10 minutes. Next, 1 cm by 1 cm squares of stratum corneum were peeled from the locations onto which the formulations were applied, stratum corneum components were extracted, and the amounts of adenosine were quantitatively analyzed by the LC-MS method (Liquid Chromatography Mass Spectrometry method).

amount of adenosine within the stratum corneum, relative to the case that Formulation 1 that did not contain ultrafine bubbles was applied: 1.6 times
SMILES: Nc1ncnc2c1ncn2[C@@H]1O[C@H](CO)[C@@H](O)[C@H]1O [adenosine]
